From patent US20140221499A1, “NOVEL RODENT CONTROL AGENTS AND USES THEREOF” (priority 2011, published 2014)

Columns and labels:
Type in all cases: cell-based
[1] = target: T1, rTAAR7h (Rattus norvegicus, UniProt Q923Y4); test: TAAR reporter gene assay, rTAAR7h; set-up: Full Taar coding regions were cloned into pcDNA3.1-(Invitrogen); Rho tag (first 20 aa of bovine rhodopsin + linker); expressed in transfected cells; host or cells: HEK293
T1 sequence (Q923Y4 1-358): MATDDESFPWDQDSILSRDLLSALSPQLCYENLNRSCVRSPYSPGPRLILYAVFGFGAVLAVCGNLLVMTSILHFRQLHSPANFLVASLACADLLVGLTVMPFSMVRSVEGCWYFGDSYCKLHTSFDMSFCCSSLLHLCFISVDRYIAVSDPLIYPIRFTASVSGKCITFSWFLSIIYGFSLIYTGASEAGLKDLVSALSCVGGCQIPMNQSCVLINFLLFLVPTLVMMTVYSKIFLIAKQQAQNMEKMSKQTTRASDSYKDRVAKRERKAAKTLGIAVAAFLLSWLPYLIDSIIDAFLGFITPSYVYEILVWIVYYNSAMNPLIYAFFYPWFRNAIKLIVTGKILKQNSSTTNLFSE
Description: (§1) Here, we set out to identify agonists for additional mouse and rat TAARs. We examined odor response profiles using a previously established reporter gene assay based on cAMP-dependent odor transduction in olfactory sensory neurons (40, 42). Briefly, TAAR plasmids were transfected into HEK293 cells along with a cAMP-dependent reporter gene encoding secreted alkaline phosphatase (CRE-SEAP). TAARs were expressed both in unmodified form and as fusion proteins with an N-terminal sequence of bovine rhodopsin (‘Rho tag’) that promotes cell surface expression of some chemosensory receptors (35). Transfected cells were incubated with test chemicals, and phosphatase activity was quantified with a fluorescent substrate as a reporter for TAAR activation. In initial experiments, we tested 38 different odorant mixtures containing 244 structurally diverse test chemicals (2-5 μM) for the ability to activate each mTAAR. Subsequently, we tested 73 amines that included known mTAAR agonists and related chemicals for the ability to activate each rTAAR.
(§2) TAAR functional assays. […] Fluorescence was measured on an EnVision plate reader (Perkin Elmer) and SEAP activity graphed as relative fluorescence of a phosphatase substrate.

[2] = target: T2, mTAAR7f (Mus musculus, UniProt Q5QD08); test: TAAR reporter gene assay, mTAAR7f; set-up: Full Taar coding regions were cloned into pcDNA3.1-(Invitrogen); Rho tag (first 20 aa of bovine rhodopsin + linker); expressed in transfected cells; host or cells: HEK293
T2 sequence (Q5QD08 1-358): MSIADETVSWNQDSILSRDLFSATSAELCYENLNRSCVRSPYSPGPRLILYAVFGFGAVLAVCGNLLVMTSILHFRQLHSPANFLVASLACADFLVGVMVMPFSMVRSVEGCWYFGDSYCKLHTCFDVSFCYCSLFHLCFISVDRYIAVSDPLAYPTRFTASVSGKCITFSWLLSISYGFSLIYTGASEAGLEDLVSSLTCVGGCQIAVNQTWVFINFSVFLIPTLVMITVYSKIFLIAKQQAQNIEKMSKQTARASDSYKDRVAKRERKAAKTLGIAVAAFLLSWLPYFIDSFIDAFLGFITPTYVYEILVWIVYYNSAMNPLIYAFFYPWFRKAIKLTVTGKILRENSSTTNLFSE
Description: as §1, with “Subsequently, we tested 73 amines that included known mTAAR agonists and related chemicals for the ability to activate each rTAAR.” left out
as §2
TAAR functional assays. […] SEAP activity is measured as fluorescence resulting from dephosphorylation of a substrate, 4-methylumbelliferyl phosphate. Fluorescence values were obtained using an EnVision plate reader (Perkin Elmer) and are reported directly without normalization. […]

[3] = target: T3, mTAAR7e (Mus musculus, UniProt Q5QD09); test: TAAR reporter gene assay, mTAAR7e
T3 construct: Full Taar coding regions were cloned into pcDNA3.1-(Invitrogen); Rho tag (first 20 aa of bovine rhodopsin + linker); expressed in transfected cells; host or cells: HEK293
T3 sequence (Q5QD09 1-358): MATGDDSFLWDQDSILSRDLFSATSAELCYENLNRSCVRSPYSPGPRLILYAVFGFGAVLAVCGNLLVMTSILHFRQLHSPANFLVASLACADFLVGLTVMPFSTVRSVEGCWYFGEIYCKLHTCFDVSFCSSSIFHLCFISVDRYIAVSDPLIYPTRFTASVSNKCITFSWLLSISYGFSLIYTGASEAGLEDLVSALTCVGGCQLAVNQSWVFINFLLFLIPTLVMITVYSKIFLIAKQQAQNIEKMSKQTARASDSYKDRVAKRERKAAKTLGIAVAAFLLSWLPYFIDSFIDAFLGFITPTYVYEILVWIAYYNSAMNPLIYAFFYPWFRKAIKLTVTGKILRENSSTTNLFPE
Description: as §1, §2

[4] = tested on: olfactory TAARs; test: TAAR reporter gene assay, panel of mouse and rat TAARs in HEK293 cells; settings: for TAAR activation: mouse and rat TAARs
Description: as §1
TAAR functional assays. Full Taar coding regions were cloned into pcDNA3.1-(Invitrogen) with or without a 5′ DNA extension of 69 bp encoding the first 20 amino acids of bovine rhodopsin followed by a cloning linker ([…]). Point mutations were introduced in mTAAR7e and mTAAR7f by overlap extension PCR. Functional assays were performed as described (40, 42). Fluorescence was measured on an EnVision plate reader (Perkin Elmer) and SEAP activity graphed as relative fluorescence of a phosphatase substrate.

SMILES | rTAAR7h activation [1] | mTAAR7f activation [2] | mTAAR7e activation [3] | TAAR activation [4] | activation of other olfactory TAARs with identified ligands ([4]; 10 μM (FIG. 2D))
CN(C)C1CCCCC1 [ligand 10, N,N-dimethylcyclohexylamine] | not | activated | not | activated different TAAR7 paralogs | 
NCCc1ccccc1 [2-phenylethylamine] |  |  |  |  | did not similarly activate
CN(C)CCc1ccccc1 [ligand 6, N,N-dimethyl-2-phenylethylamine] | activated | not | activated | activated different TAAR7 paralogs | 
